Counter-ions that a name gives are not always drawn. Like-named read-outs stand apart in the source and are kept apart here.
Assays:
[1] = system: acetylcholinesterase as opposed to butyrylcholinesterase; conditions: cited from earlier work; for selectivity for acetylcholinesterase as opposed to butyrylcholinesterase: in vitro method by Thomsen et al.
[2] = cited from earlier work
[3] = target: butyrylcholinesterase (pseudocholinesterase) in serum (Homo sapiens, UniProt P06276); conditions: for Serum ChE activity: no addition = 1.00, blood samples from 3 patients
Source text: SIGMA DIAGNOSTICS® CHOLINESTERASE (PTC) kit, available from Sigma Diagnostics, can be used for determining the activity and selectivity of cholinesterase inhibitors. In the following, it is illustrated how the kit is used for the determination of the activity and selectivity of Nivalin (Galanthamine hydrobromide).
Reactions involved in the cholinesterase assay are as follows: [drawing 3]
Thiocholine+5,5'-Dithiobis-2-Nitrobenzoic Acid→5-Thio-2-NitrobenzoicAcid
5-Thio-2-Nitrobenzoic Acid is assessed by measuring the absorbance at 405 nm. The rate of change in absorbance at 405 nm is directly proportional to cholinesterase activity.
The activity of erythrocyte cholinesterase may be calculated on the basis of the measurement of butyrylcholinesterase (pseudocholinesterase) in serum and cholinesterase in hemolyzed whole blood (hemolysate), both measured simultaneously by the method described above, and evaluated according to the hematocrit value according to the formula
(§1) HChE=(EChE×Hct*)+(PChE×(1--Hct*))
In the above formulae, EChE is erythrocyte cholinesterase activity, PChE is plasma cholinesterase activity, HChE is hemolysate cholinesterase activity, and Hct is hematocrit value of the sample.
Another way of assessing the cholinesterase activity is to measure the plasma cholinesterase and the cholinesterase in purified hemolyzed erythrocytes. By doing this, the values are obtained directly.
Blood samples from 3 patients were tested with the Sigma test. The tests were carried out with samples where no Nivalin was added and with samples where 1.25 μg/ml Nivalin and 2.5 μg/ml were added in vitro.

[4] = system: cholinesterase in hemolyzed whole blood (hemolysate); test: Sigma Diagnostics Cholinesterase (PTC) kit, hemolysate of patient blood samples; format: biochemical, human; conditions: for Hemolysate ChE activity: no addition = 1.00, blood samples from 3 patients
Source text: as §1
By doing this, the values are obtained directly.
The results are shown below in table 1.1.

[5] = system: persons suffering from Chronic Fatigue Syndrome; test: Double-blind cross-over trial in Chronic Fatigue Syndrome: clinician's transfer to alternative treatment; format: in vivo, human; conditions: after two weeks of treatment; 9/9 on placebo; exact p=0.00006
Source text: (§2) 20 persons suffering from Chronic Fatigue Syndrome fulfilling the criteria described in example 4 or 5.
(§3) Each patient received treatment for a minimum of 8 weeks. The first 2 weeks incorporated an escalating schedule to stabilise the patient on an appropriate dose. The trial was running for eight weeks.
(§4) 11 of the persons were randomly allocated to galanthamine treatment, and the remaining 9 to placebo treatment. The protocol for the trial made provisions for the clinician to opt after two weeks of treatment for transfer to the alternative treatment.

[6] = format: physicochemical; conditions: room temperature
Procedure: Galanthamine and its acid addition salts form crystals. […] If necessary, pharmaceutically-acceptable suspension aids may be employed. Typically, such a suspension will be employed at a concentration of 0.1-50 mg/ml, such as 1-50 mg/ml, more commonly 5-40 mg/ml, for example, 5-30 mg/ml or 10-40 mg/ml, such as 10-30 mg/ml, especially 20-30 mg/ml of galanthamine. As mentioned above, typical dosage rates when administering galanthamine by injection are the range 0.01-20 mg per day depending upon the patient. […] In other cases, dosages as low as 5 mg and as high as 200 mg per day may be appropriate for persons in this body weight range.

[7] = Side effects in treated patients; format: in vivo, human
Procedure: A complete elimination of metabolites and galanthamine takes place in 72 hours. […] The common side effects, other than the ones related to cholinergic crisis, are either nausea or vomiting, and a slight headache. However, these side effects are rare, especially when care is taken to start medication in low doses such as mentioned above.
Although galanthamine must be considered as having a high degree of safety, there have been certain side effects in a few of the patients treated. These have been slight nausea in about 30% of the cases (the nausea, however, disappearing after about one week of treatment), vomiting and dizziness in 5-10% of the patients (also disappearing after about one week of treatment in most cases), and more severe side effects in 4-6% of the patients. These more severe side effects must be considered acceptable in view of the effect of the drug; however, in patients who are suspected of developing arrhythmia, it should be considered to administer, e.g., atropine in combination with the treatment according to the invention.

[8] = system: persons suffering from Chronic Fatigue Syndrome; test: Double-blind cross-over trial in Chronic Fatigue Syndrome: Cognitive Failures Questionnaire; format: in vivo, human
Source text: as §2, §3
11 of the persons were randomly allocated to galanthamine treatment, and the remaining 9 to placebo treatment. The protocol for the trial made provisions for the clinician to opt after two weeks of treatment for transfer to the alternative treatment. […]

[9] = system: persons suffering from Chronic Fatigue Syndrome; test: Double-blind cross-over trial in Chronic Fatigue Syndrome: patient-completed visual analogue scales; format: in vivo, human; parameters: Sleep Disturbance visual analogue scale, mean / Fatigue visual analogue scale, mean / Myalgia visual analogue scale, mean / Work Capacity/Satisfaction visual analogue scale, mean / Memory visual analogue scale, mean / Dizziness visual analogue scale, mean / Sleep visual analogue scale, mean / Work visual analogue scale, mean: scale not given here
Source text: as §2, §3, §4
(§5) The data available for the evaluation covered groups of patient-completed visual analogue scales to assess sleep disturbance, fatigue, myalgia, work capacity/satisfaction, and dizziness, together with time per response on a visual search task.
In order to assess any underlying, overall performance difference between the galanthamine and placebo treated patients, the median (the statistic which differentiates the upper and lower 50% of scores) of the changes across all scales, was computed for the placebo treated patients.

[10] = system: auditory evoked potentials in the brain stem; test: Auditory brain stem response; format: in vivo, human
Procedure: The auditory brain stem response test is based on the observation that manio-depressive patients are hypersensitive to cholinergic influences, one manifestation hereof being hypersensitivity to auditory signals as assessed by the increase of amplitude of auditory evoked potentials in the nuclei of the auditory system in the brain stem, i.e. on the "brain side" of the blood brain barrier. […] See also example 3.
Electrical potentials caused by click-stimulation in the ears are measured with electrodes positioned outside on the head of the examined parson. In the configuration of the potentials are components from the brain stem and the brain.
A patient suffering from bipolar manio-depression in the depressive stats and a healthy person, respectively.
Tablet containing 10 mg galanthamine

[11] = system: persons suffering from Chronic Fatigue Syndrome; test: Double-blind cross-over trial in Chronic Fatigue Syndrome: visual search task; format: in vivo, human
Source text: as §2, §3, §4, §5

[12] = system: acetylcholinesterase in the erythrocytes; conditions: within 2 minutes after 10 mg i.v., healthy volunteer; cited from earlier work
[13] = use as anticurare agent in anesthesiology in Eastern Block countries since around 1958; cited from earlier work
[14] = system: butyrylcholinesterase in plasma; conditions: after 10 mg i.v., healthy volunteer; cited from earlier work
[15] = all galanthamine treated patients, 8 Weeks, N = 17
[16] = all galanthamine treated patients, Baseline, N = 19
[17] = all galanthamine treated patients, 1 Week, N = 19
[18] = all galanthamine treated patients, 2 Weeks, N = 19
[19] = all galanthamine treated patients, 4 Weeks, N = 18
[20] = randomly allocated to galanthamine (N=11), After 1 Week
[21] = randomly allocated to galanthamine (N=11), After 2 Weeks
[22] = randomly allocated to galanthamine (N=11), Baseline
[23] = 2 hours after 10 mg tablet, treated compared to untreated

Chain of butyrylcholinesterase (pseudocholinesterase) in serum (P06276 29-602): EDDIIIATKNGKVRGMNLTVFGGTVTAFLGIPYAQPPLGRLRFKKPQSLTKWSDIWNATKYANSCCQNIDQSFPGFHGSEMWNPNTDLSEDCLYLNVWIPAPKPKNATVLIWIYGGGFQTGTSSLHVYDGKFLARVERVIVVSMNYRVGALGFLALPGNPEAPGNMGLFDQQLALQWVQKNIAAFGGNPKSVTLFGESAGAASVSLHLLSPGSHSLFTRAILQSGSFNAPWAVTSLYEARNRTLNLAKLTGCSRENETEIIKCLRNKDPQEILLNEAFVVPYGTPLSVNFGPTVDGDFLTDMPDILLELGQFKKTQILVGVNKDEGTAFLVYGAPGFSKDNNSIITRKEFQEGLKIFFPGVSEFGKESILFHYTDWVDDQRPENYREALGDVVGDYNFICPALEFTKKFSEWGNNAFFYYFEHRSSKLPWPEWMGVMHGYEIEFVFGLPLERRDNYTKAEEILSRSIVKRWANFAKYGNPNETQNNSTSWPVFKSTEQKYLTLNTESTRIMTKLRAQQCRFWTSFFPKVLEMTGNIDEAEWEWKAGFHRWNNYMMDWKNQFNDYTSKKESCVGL

COc1ccc2c3c1O[C@H]1C[C@@H](O)C=C[C@@]31CCN(C)C2 [galanthamine hydrobromide, Galanthamine hydrobromide]
selectivity for acetylcholinesterase as opposed to butyrylcholinesterase ([1]; hydrobromide): 50 fold
elimination half life ([2]; in vivo): over four
absorption from the gut ([2]; in words): absorbed rapidly from the gut
passage of the blood brain barrier ([2]; in words): transverses the blood brain barrier easily
renal elimination ([2]; in words): practically complete renal elimination
Serum ChE activity ([3]; 1.25 μg/ml added in vitro): 0.98
Serum ChE activity ([3]; 2.50 μg/ml added in vitro): 0.97
change of serum cholinesterase activity on addition ([3]; in words): do not show any statistically significant change
Hemolysate ChE activity ([4]; 1.25 μg/ml added in vitro): 0.96
Hemolysate ChE activity ([4]; 2.50 μg/ml added in vitro): 0.86
change of hemolysate cholinesterase activity with increased concentration ([4]; in words): significant reduction

COc1ccc2c3c1O[C@H]1C[C@@H](O)C=C[C@@]31CCN(C)C2 [galanthamine]
patients transferred by the clinician to the alternative treatment (failed to benefit) [5]: 1/11
solubility in water [6]: only sparingly soluble
selectivity for acetylcholinesterase as opposed to butyrylcholinesterase [1]: about 50 fold
in vitro selectivity for acetylcholinesterase opposed the effect on butyrylcholinesterase ([1]; ratio, as reported by Thomsen, Life Sciences 46): 50 to 1
time to complete elimination of metabolites and galanthamine ([2]; in vivo): 72 h
duration of an effective concentration ([2]; warranted by elimination half life, probably at least 6 hours): at least 4 hours
slight nausea, share of cases ([7]; disappearing after about one week of treatment): about 30%
vomiting and dizziness, share of patients ([7]; disappearing after about one week of treatment in most cases): 5-10%
more severe side effects, share of patients ([7]; human, in vivo): 4-6%
Cognitive Failures Questionnaire, mean (standard error) ([8]; 672 h): 40.94 (3.87)
Cognitive Failures Questionnaire, mean (standard error) [8, 15]: 38.47 (3.71)
Cognitive Failures Questionnaire, mean (standard error) [8, 16]: 47.74 (3.56)
Dizziness visual analogue scale, mean [9, 17]: 8.96
Fatigue visual analogue scale, mean [9, 17]: 26.63
Memory visual analogue scale, mean [9, 17]: 5.41
Myalgia visual analogue scale, mean [9, 17]: 14.25
Sleep visual analogue scale, mean [9, 17]: 17.26
Work visual analogue scale, mean [9, 17]: 10.22
Dizziness visual analogue scale, mean [9, 18]: 6.94
Fatigue visual analogue scale, mean [9, 18]: 20.64
Memory visual analogue scale, mean [9, 18]: 4.79
Myalgia visual analogue scale, mean [9, 18]: 11.24
Sleep visual analogue scale, mean [9, 18]: 15.51
Work visual analogue scale, mean [9, 18]: 8.21
Dizziness visual analogue scale, mean [9, 19]: 6.30
Fatigue visual analogue scale, mean [9, 19]: 17.42
Memory visual analogue scale, mean [9, 19]: 4.33
Myalgia visual analogue scale, mean [9, 19]: 12.01
Sleep visual analogue scale, mean [9, 19]: 11.89
Work visual analogue scale, mean [9, 19]: 7.40
Dizziness visual analogue scale, mean [9, 15]: 4.77
Fatigue visual analogue scale, mean [9, 15]: 17.81
Memory visual analogue scale, mean [9, 15]: 4.50
Myalgia visual analogue scale, mean [9, 15]: 10.51
Sleep visual analogue scale, mean [9, 15]: 10.88
Work visual analogue scale, mean [9, 15]: 7.34
Dizziness visual analogue scale, mean [9, 16]: 8.39
Fatigue visual analogue scale, mean [9, 16]: 28.00
Memory visual analogue scale, mean [9, 16]: 5.10
Myalgia visual analogue scale, mean [9, 16]: 16.32
Sleep visual analogue scale, mean [9, 16]: 19.45
Work visual analogue scale, mean [9, 16]: 9.21
galanthamine treated patients changes on the analogue scales that fall above the placebo median ([9]; first two weeks of treatment, across all scales, exact p=0.033): 68.18%
Dizziness visual analogue scale, mean [9, 20]: 9.00
Fatigue visual analogue scale, mean [9, 20]: 29.76
Memory visual analogue scale, mean [9, 20]: 5.89
Myalgia visual analogue scale, mean [9, 20]: 15.95
Sleep Disturbance visual analogue scale, mean [9, 20]: 17.90
Work Capacity/Satisfaction visual analogue scale, mean [9, 20]: 11.61
Dizziness visual analogue scale, mean [9, 21]: 8.79
Fatigue visual analogue scale, mean [9, 21]: 25.21
Memory visual analogue scale, mean [9, 21]: 5.62
Myalgia visual analogue scale, mean [9, 21]: 13.58
Sleep Disturbance visual analogue scale, mean [9, 21]: 18.42
Work Capacity/Satisfaction visual analogue scale, mean [9, 21]: 9.64
Dizziness visual analogue scale, mean [9, 22]: 9.05
Fatigue visual analogue scale, mean [9, 22]: 29.41
Memory visual analogue scale, mean [9, 22]: 5.31
Myalgia visual analogue scale, mean [9, 22]: 17.58
Sleep Disturbance visual analogue scale, mean [9, 22]: 20.78
Work Capacity/Satisfaction visual analogue scale, mean [9, 22]: 9.43
amplitude of auditory brain stem response, depressive patient [10, 23]: dramatically increase of the amplitude
auditory brain stem response potentials, healthy person [10, 23]: potentials do not change
ability to cross the blood-brain barrier ([10]; concluded from change of potentials in the depressed person): must be able to cross the blood-brain barrier
average time per response on a visual search task, mean (standard error) ([11]; 336 h): 5.51 (0.43)
average time per response on a visual search task, mean (standard error) [11, 17]: 6.24 (0.40)
average time per response on a visual search task, mean (standard error) [11, 19]: 5.83 (0.40)
average time per response on a visual search task, mean (standard error) [11, 15]: 5.25 (0.31)
average time per response on a visual search task, mean (standard error) [11, 16]: 6.79 (0.36)
inhibition of acetylcholinesterase in the erythrocytes [12]: 65%
liver toxicity or serious side effects [13]: without any reported case of liver toxicity or serious side effects
inhibition of butyrylcholinesterase in plasma [14]: no inhibition
